Results: the OligoGym collection
HELM strings list units from the 5' end as sugar, base in round brackets, then linkage (d deoxyribose, r ribose, m 2'-O-methyl, p phosphodiester). Strings are as the collection lists them; they lack the last nucleoside at the 3' end of the tested compound. [moe] = 2'-O-(2-methoxyethyl) (MOE); [sp] = phosphorothioate linkage; [m5C] = 5-methylcytosine

Target: APP
Assay: mouse, dose not given
Settings: ASO

Substance	3 h FOB score [score 0-7]
RNA1{[moe](T)[sp].[moe]([m5C])p.[moe](T)p.[moe](T)p.[moe]([m5C])[sp].d(T)[sp].d(T)[sp].d([m5C])[sp].d([m5C])[sp].d(A)[sp].d([m5C])[sp].d([m5C])[sp].d(T)[sp].d([m5C])[sp].d(A)[sp].[moe](G)p.[moe]([m5C])p.[moe]([m5C])[sp].[moe](A)}$$$$ (last 3' nucleoside missing)	0.5
RNA1{[moe](T)[sp].[moe]([m5C])p.[moe](T)p.[moe](T)p.[moe]([m5C])[sp].d([m5C])[sp].d([m5C])[sp].d(A)[sp].d([m5C])[sp].d(A)[sp].d(T)[sp].d(T)[sp].d(A)[sp].d(T)[sp].d(T)[sp].[moe]([m5C])p.[moe](T)p.[moe](A)[sp].[moe](T)}$$$$ (last 3' nucleoside missing)	0
RNA1{[moe](T)[sp].[moe]([m5C])p.[moe](T)p.[moe]([m5C])p.[moe](A)[sp].d(T)[sp].d(A)[sp].d(G)[sp].d(T)[sp].d([m5C])[sp].d(T)[sp].d(T)[sp].d(A)[sp].d(A)[sp].d(T)[sp].[moe](T)p.[moe]([m5C])p.[moe]([m5C])[sp].[moe]([m5C])}$$$$ (last 3' nucleoside missing)	0
RNA1{[moe](T)[sp].[moe]([m5C])p.[moe](T)p.[moe]([m5C])p.[moe](T)[sp].d([m5C])[sp].d(A)[sp].d(T)[sp].d(A)[sp].d(G)[sp].d(T)[sp].d([m5C])[sp].d(T)[sp].d(T)[sp].d(A)[sp].[moe](A)p.[moe](T)p.[moe](T)[sp].[moe]([m5C])}$$$$ (last 3' nucleoside missing)	0
RNA1{[moe](T)[sp].[moe]([m5C])p.[moe](T)p.[moe]([m5C])p.[moe]([m5C])[sp].d(A)[sp].d(A)[sp].d(T)[sp].d(T)[sp].d(T)[sp].d(T)[sp].d(A)[sp].d(A)[sp].d([m5C])[sp].d(T)[sp].[moe](T)p.[moe](G)p.[moe]([m5C])[sp].[moe](A)}$$$$ (last 3' nucleoside missing)	0
RNA1{[moe](T)[sp].[moe]([m5C])p.[moe]([m5C])p.[moe](A)p.[moe](A)[sp].d(A)[sp].d(G)[sp].d(A)[sp].d(T)[sp].d(T)[sp].d([m5C])[sp].d([m5C])[sp].d(A)[sp].d([m5C])[sp].d(T)[sp].[moe](T)p.[moe](T)p.[moe]([m5C])[sp].[moe](T)}$$$$ (last 3' nucleoside missing)	0.5
RNA1{[moe](T)[sp].[moe]([m5C])p.[moe]([m5C])p.[moe](A)p.[moe](A)[sp].d(T)[sp].d(T)[sp].d(T)[sp].d(T)[sp].d(A)[sp].d(A)[sp].d([m5C])[sp].d(T)[sp].d(T)[sp].d(G)[sp].[moe]([m5C])p.[moe](A)p.[moe]([m5C])[sp].[moe]([m5C])}$$$$ (last 3' nucleoside missing)	0.5
RNA1{[moe](T)[sp].[moe]([m5C])p.[moe]([m5C])p.[moe](A)p.[moe](T)[sp].d([m5C])[sp].d(T)[sp].d(T)[sp].d([m5C])[sp].d(A)[sp].d([m5C])[sp].d(T)[sp].d(T)[sp].d([m5C])[sp].d(A)[sp].[moe](G)p.[moe](A)p.[moe](G)[sp].[moe](A)}$$$$ (last 3' nucleoside missing)	0.5
RNA1{[moe](T)[sp].[moe]([m5C])p.[moe]([m5C])p.[moe](G)p.[moe](A)[sp].d(G)[sp].d(T)[sp].d([m5C])[sp].d(A)[sp].d(T)[sp].d([m5C])[sp].d([m5C])[sp].d(T)[sp].d([m5C])[sp].d([m5C])[sp].[moe](T)p.[moe]([m5C])p.[moe]([m5C])[sp].[moe](G)}$$$$ (last 3' nucleoside missing)	1
RNA1{[moe](T)[sp].[moe]([m5C])p.[moe]([m5C])p.[moe]([m5C])p.[moe](A)[sp].d(T)[sp].d(A)[sp].d([m5C])[sp].d(A)[sp].d(T)[sp].d(G)[sp].d(A)[sp].d(T)[sp].d(T)[sp].d(T)[sp].[moe](T)p.[moe](A)p.[moe](G)[sp].[moe](G)}$$$$ (last 3' nucleoside missing)	1.25
RNA1{[moe]([m5C])[sp].[moe](A)[sp].[moe](T)p.[moe]([m5C])p.[moe](A)[sp].d([m5C])[sp].d(T)[sp].d(T)[sp].d(A)[sp].d([m5C])[sp].d(A)[sp].d(A)[sp].d(A)[sp].d([m5C])[sp].d(T)[sp].[moe]([m5C])p.[moe](A)p.[moe]([m5C])[sp].[moe]([m5C])}$$$$ (last 3' nucleoside missing)	0
RNA1{[moe]([m5C])[sp].[moe](A)p.[moe](A)p.[moe](A)p.[moe](G)[sp].d(A)[sp].d(T)[sp].d(T)[sp].d([m5C])[sp].d([m5C])[sp].d(A)[sp].d([m5C])[sp].d(T)[sp].d(T)[sp].d(T)[sp].[moe]([m5C])p.[moe](T)p.[moe]([m5C])[sp].[moe]([m5C])}$$$$ (last 3' nucleoside missing)	7
RNA1{[moe]([m5C])[sp].[moe](A)p.[moe](G)p.[moe]([m5C])p.[moe]([m5C])[sp].d([m5C])[sp].d([m5C])[sp].d(A)[sp].d(A)[sp].d(A)[sp].d(A)[sp].d(G)[sp].d(A)[sp].d(A)[sp].d(T)[sp].[moe](G)p.[moe]([m5C])p.[moe]([m5C])[sp].[moe](A)}$$$$ (last 3' nucleoside missing)	0.5
RNA1{[moe]([m5C])[sp].[moe](A)p.[moe](T)p.[moe](G)p.[moe](A)[sp].d(G)[sp].d(T)[sp].d([m5C])[sp].d([m5C])[sp].d(A)[sp].d(A)[sp].d(T)[sp].d(G)[sp].d(A)[sp].d(T)[sp].[moe](T)p.[moe](G)p.[moe]([m5C])[sp].[moe](A)}$$$$ (last 3' nucleoside missing)	5.5
RNA1{[moe]([m5C])[sp].[moe](A)p.[moe](T)p.[moe](G)p.[moe](G)[sp].d([m5C])[sp].d(T)[sp].d(T)[sp].d([m5C])[sp].d([m5C])[sp].d(A)[sp].d([m5C])[sp].d(T)[sp].d([m5C])[sp].d(T)[sp].[moe](G)p.[moe](G)p.[moe]([m5C])[sp].[moe]([m5C])}$$$$ (last 3' nucleoside missing)	1
RNA1{[moe]([m5C])[sp].[moe](A)p.[moe](T)p.[moe](G)p.[moe]([m5C])[sp].d(G)[sp].d([m5C])[sp].d(T)[sp].d([m5C])[sp].d(A)[sp].d(T)[sp].d(A)[sp].d(A)[sp].d(A)[sp].d(T)[sp].[moe]([m5C])p.[moe](A)p.[moe]([m5C])[sp].[moe](A)}$$$$ (last 3' nucleoside missing)	3.5
RNA1{[moe]([m5C])[sp].[moe](A)p.[moe](T)p.[moe](T)p.[moe]([m5C])[sp].d(T)[sp].d([m5C])[sp].d(T)[sp].d(T)[sp].d(A)[sp].d(T)[sp].d(A)[sp].d(T)[sp].d(T)[sp].d([m5C])[sp].[moe]([m5C])p.[moe](T)p.[moe](T)[sp].[moe](A)}$$$$ (last 3' nucleoside missing)	0
RNA1{[moe]([m5C])[sp].[moe](A)p.[moe](T)p.[moe]([m5C])p.[moe](A)[sp].d([m5C])[sp].d(T)[sp].d(T)[sp].d(A)[sp].d([m5C])[sp].d(A)[sp].d(A)[sp].d(A)[sp].d([m5C])[sp].d(T)[sp].[moe]([m5C])p.[moe](A)p.[moe]([m5C])[sp].[moe]([m5C])}$$$$ (last 3' nucleoside missing)	0.5
RNA1{[moe]([m5C])[sp].[moe](A)p.[moe]([m5C])p.[moe]([m5C])p.[moe](A)[sp].d(T)[sp].d([m5C])[sp].d(T)[sp].d(A)[sp].d(T)[sp].d(A)[sp].d(A)[sp].d(T)[sp].d(A)[sp].d([m5C])[sp].[moe]([m5C])p.[moe](A)p.[moe](T)[sp].[moe]([m5C])}$$$$ (last 3' nucleoside missing)	0
RNA1{[moe]([m5C])[sp].[moe](A)p.[moe]([m5C])p.[moe]([m5C])p.[moe](T)[sp].d([m5C])[sp].d(A)[sp].d(G)[sp].d([m5C])[sp].d([m5C])[sp].d(A)[sp].d([m5C])[sp].d(T)[sp].d(T)[sp].d([m5C])[sp].[moe](T)p.[moe](T)p.[moe]([m5C])[sp].[moe]([m5C])}$$$$ (last 3' nucleoside missing)	0.5
RNA1{[moe]([m5C])[sp].[moe](G)p.[moe](A)p.[moe](G)p.[moe](A)[sp].d(T)[sp].d(A)[sp].d([m5C])[sp].d(T)[sp].d(T)[sp].d(G)[sp].d(T)[sp].d([m5C])[sp].d(A)[sp].d(A)[sp].[moe]([m5C])p.[moe](G)p.[moe](G)[sp].[moe]([m5C])}$$$$ (last 3' nucleoside missing)	2.33
RNA1{[moe]([m5C])[sp].[moe](G)p.[moe](G)p.[moe](A)p.[moe]([m5C])[sp].d(T)[sp].d(T)[sp].d(T)[sp].d(T)[sp].d(T)[sp].d(T)[sp].d([m5C])[sp].d(T)[sp].d(T)[sp].d([m5C])[sp].[moe](T)p.[moe](T)p.[moe](G)[sp].[moe]([m5C])}$$$$ (last 3' nucleoside missing)	0
RNA1{[moe]([m5C])[sp].[moe](G)p.[moe](G)p.[moe]([m5C])p.[moe](A)[sp].d(G)[sp].d(T)[sp].d(T)[sp].d(T)[sp].d(A)[sp].d(A)[sp].d(A)[sp].d(A)[sp].d(T)[sp].d(T)[sp].[moe]([m5C])p.[moe](T)p.[moe]([m5C])[sp].[moe](T)}$$$$ (last 3' nucleoside missing)	0
RNA1{[moe]([m5C])[sp].[moe](G)p.[moe](T)p.[moe](G)p.[moe](T)[sp].d(G)[sp].d(T)[sp].d(A)[sp].d(T)[sp].d([m5C])[sp].d([m5C])[sp].d(T)[sp].d([m5C])[sp].d(T)[sp].d(T)[sp].[moe](A)p.[moe](A)p.[moe](T)[sp].[moe](T)}$$$$ (last 3' nucleoside missing)	1
RNA1{[moe]([m5C])[sp].[moe](T)[sp].[moe](T)p.[moe]([m5C])p.[moe]([m5C])[sp].d([m5C])[sp].d(A)[sp].d(T)[sp].d(T)[sp].d([m5C])[sp].d(T)[sp].d([m5C])[sp].d(T)[sp].d([m5C])[sp].d(A)[sp].[moe](T)p.[moe](G)p.[moe](A)[sp].[moe]([m5C])}$$$$ (last 3' nucleoside missing)	1
